Biological target: human S1P4 (Homo sapiens (Human), UniProt O95977)
Assay: Calcium mobilization (calcium flux) assay, antagonist format, S1P4
Type: cell-based
Settings: recombinant CHEM cells expressing human S1P4; FLIPR Calcium 4 dye; stimulated with EC80 of reference agonist
Protocol: Compounds that are not specific for a particular S1P receptor can cause undesirable side effects. Accordingly, compounds are tested to identify those that are specific. Accordingly, the test compounds are tested in a calcium mobilization assay/S1P receptor activity assay. The procedure is essentially as described in Davis et al. (2005) Journal of Biological Chemistry, vol. 280, pp. 9833-9841, which is incorporated by reference in its entirety with the following modifications. Calcium mobilization assays are performed in recombinant CHEM cells expressing human S1P1, S1P2, S1P3, S1P4, or S1P5 purchased from Millipore (Billerica, Mass.). To detect free intracellular calcium, S1P1, S1P2, S1P3, S1P4, or S1P5 cells are loaded with FLIPR Calcium 4 dye from Molecular Devices (Sunnyvale, Calif.). Cells are imaged for calcium mobilization using a FLIPR^TETRA equipped with a 96-well dispense head. […]
Assay was read for 180 seconds using the FLIPR^TETRA (This assay run added sample compounds and reference agonist to respective wells). […]
Using the EC80 values determined during the agonist assay, stimulated all pre-incubated sample compound and reference antagonist (if applicable) wells with EC80 of reference agonist. Read for 180 seconds using the FLIPR^TETRA (This assay added reference agonist to respective wells—then fluorescence measurements were collected to calculate percentage inhibition values).

human S1P4, sequence (O95977 whole entry): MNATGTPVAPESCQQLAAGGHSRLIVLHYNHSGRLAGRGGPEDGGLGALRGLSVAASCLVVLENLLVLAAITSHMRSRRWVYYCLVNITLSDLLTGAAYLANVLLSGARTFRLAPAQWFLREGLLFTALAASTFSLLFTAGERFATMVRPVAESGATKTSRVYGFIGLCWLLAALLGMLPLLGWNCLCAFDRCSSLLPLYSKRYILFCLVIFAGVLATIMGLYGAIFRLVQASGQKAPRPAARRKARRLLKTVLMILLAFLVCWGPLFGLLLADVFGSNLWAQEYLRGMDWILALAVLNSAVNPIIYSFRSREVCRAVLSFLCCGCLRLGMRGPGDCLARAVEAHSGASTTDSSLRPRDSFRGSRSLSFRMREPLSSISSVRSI

IC50: ≤ 250 nM
Compound: CC(C)(C)[C@H]1CC[C@H](Oc2cccc3c(CN4CCC(C(=O)O)CC4)cccc23)CC1 [Example 30, 1-((5-((trans-4-(tert-butyl)cyclohexyl)oxy)naphthalen-1-yl)methyl)piperidine-4-carboxylic acid]
